Experimental data published in patent US10253038B2, “Fusicoccane derivatives and methods” (Florida State University Research Foundation, Inc., priority 2017, dated 2019).
Values belong to the compound of their own block, whether it stands above or below them.

Experiments:
[1] = target: T1, 14-3-3σ•Task-3 ctp interaction (Homo sapiens, UniProt P31947); experiment: Fluorescence polarization (FP) of fluorescein-labeled Task-3 ctp titrated with 14-3-3σ; format: binding; conditions: for screen for functional interaction with 14-3-3σ•Task-3 ctp complex (result in words): library screen of 8a-j, 9-11, FIG. 3
T1 construct: made in house; host or cells: E. coli BL21
T1 sequence (P31947 whole entry, other chains not shown): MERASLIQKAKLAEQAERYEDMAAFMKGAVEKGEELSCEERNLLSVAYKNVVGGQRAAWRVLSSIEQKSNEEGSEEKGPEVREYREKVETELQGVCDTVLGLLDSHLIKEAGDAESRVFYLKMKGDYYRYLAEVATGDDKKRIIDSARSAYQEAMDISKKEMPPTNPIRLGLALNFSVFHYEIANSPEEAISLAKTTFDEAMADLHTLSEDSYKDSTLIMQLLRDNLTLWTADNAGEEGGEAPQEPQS
Method: (§1) Replicated in this example was Ottmann's characterization of interactions between 14-3-3σ and a synthetic hexapeptide of Task-3 containing the putative C-terminal 14-3-3-interaction motif KRRK-pS-V (Task-3 ctp). (Anders, C. et al., Chem. Biol. 2013, 13, 583-593).
(§2) Recombinant human 14-3-3σ was prepared using a bacterial expression protocol, which routinely produced 15 mg/L of purified protein. Recombinant 14-3-3σ was expressed in BL21 E. Coli cells and purified by Ni-affinity chromatography.
The titration protocol was adapted to 96-well plate format using fluorescence polarization (FP) experiments. FP measurements of fluorescein-labeled Task-3 ctp, in the absence and presence of 100 μM fusicoccin A (1), titrated with 14-3-3σ were used to obtain the apparent Kd of the 14-3-3σ•Task-3 ctp interaction. […] Also collected were FP measurements of fluorescein-labeled c-Raf peptide, in the absence and presence of 100 μM fusicoccin A (1), titrated with 14-3-3σ to obtain the apparent Kd of the 14-3-3σ•c-Raf peptide interaction.
Error bars indicate the mean±SD of three independent experiments.
In view of the foregoing control data, a library of synthetic derivatives, including 8a-j, 9-11, was screened for functional interactions 14-3-3σ•Task-3 ctp complex. […]

[2] = target: T2, 14-3-3σ•Task-3 ctp (Homo sapiens, UniProt P31947); experiment: Isothermal titration calorimetry (ITC) of Task-3 ctp with 14-3-3σ in the presence and absence of fusicoccin A; format: binding; conditions: 100 μM fusicoccin A vs absence
T2 construct: made in house; host or cells: E. coli BL21
T2 sequence (P31947 whole entry, other chains not shown): as above
Method: as §1, §2
This was determined by the association of ITC binding isotherms for Task-3 ctp with 14-3-3σ in the presence and absence of 100 μM of fusicoccin A (1).

[3] = test system: 14-3-3•PMA2 complex; conditions: background statement; cited from earlier work

fold enhancement of apparent affinity of Task-3 ctp to 14-3-3σ ([1]; FP, DMSO (10%) in buffer, 6.3 mM compound): 1.1 fold
screen for functional interaction with 14-3-3σ•Task-3 ctp complex (result in words) [1]: increase the apparent affinity
SMILES: O=C1CCC2=C1[C@@]1(CN3CCOCC3)C=C[C@]3(CCC[C@H]3C2)O1 [compound 8f]

melting point: 50.8 to 51.3 °C
SMILES: O=C1CCC2=C1[C@H]1C=C[C@]3(CCC[C@H]3C2)O1 (racemic) [compound 8a, (±)-1,2,3,6,8,9,10,10a-octahydro-7H-3a,6-epoxydicyclopenta[a,d] [8]annulen-7-one]

melting point: 88.9 to 91.3 °C
SMILES: CC1CC(=O)C2C3C=CC4(CCCC4CC12)O3 (racemic) [compound 9, (±)-9-Methyl-1,2,3,6,6a,8,9,9a, 10,10a-decahydro-7H-3a,6-epoxydicyclopenta[a,d] [8]annulen-7-one]

fold stabilization of 14-3-3σ•Task-3 ctp [2]: 152 fold
fold enhancement of apparent affinity of Task-3 ctp to 14-3-3σ ([1]; FP, 100 μM fusicoccin A): 37 fold
EC50 ([1]; FP, fluorescein-labeled Task-3 ctp and 14-3-3σ titrated with compound, mean±SD of three experiments, read-out: EC50 of stabilization of the 14-3-3σ•Task-3 ctp complex): 1400 ± 300 nM
SMILES: C=CC(C)(C)OC[C@H]1O[C@H](O[C@@H]2C3=C([C@H](C)COC(C)=O)C[C@H](O)[C@]3(C)/C=C3/[C@@H](COC)CC[C@H]3[C@@H](C)[C@H]2O)[C@H](O)[C@@H](OC(C)=O)[C@@H]1O [fusicoccin A, reference compound]
prolongation of the lifetime of the 14-3-3•PMA2 complex [3]: 90 fold

fold enhancement of apparent affinity of Task-3 ctp to 14-3-3σ ([1]; FP, DMSO (10%) in buffer, 1.6 mM compound): 1.2 fold
screen for functional interaction with 14-3-3σ•Task-3 ctp complex (result in words) [1]: increase the apparent affinity
SMILES: C=C(C)C1=C2[C@H]3C=C[C@]4(CCC[C@H]4C[C@@]2(C)CC1)O3 (racemic) [compound 11]
